We go through 14 molecules from patent US5086067A, “LTB4 synthesis inhibitors” (G. D. Searle & Co., priority 1989, dated 1992).

For test [1], the target named is T1, Human synovial fluid phospholipase A2 (HSF-PLA2) (Homo sapiens, UniProt P14555).
T1 construct: Human synovial fluid phospholipase A2 was purified approximately 5000 fold; from tissue; host or cells: human synovial fluid
T1 sequence (P14555 21-144): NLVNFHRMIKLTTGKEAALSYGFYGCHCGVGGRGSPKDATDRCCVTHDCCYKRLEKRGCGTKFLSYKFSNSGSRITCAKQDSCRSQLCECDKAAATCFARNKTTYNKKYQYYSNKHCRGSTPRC
Description: Human synovial fluid phospholipase A2 (HSF-PLA2) assay. Type of test: biochemical. The conditions noted are these: [14C]-oleate-labeled E. coli substrate, pH 7.0, 5 min pre-incubation, 37° C., 30 minutes. Here is the method:
Human synovial fluid phospholipase A2 was purified approximately 5000 fold following the procedures of Franson et al., Lung 160, 275-284 (1982) and Fawzy et al., Bio Phys. J. 49, 533a (1986). Following purification the enzyme activity was measured by established methodology using [^14 C]-oleate-labeled, autoclaved E. coli as the substrate as also shown in the above noted references. The assay was performed in a final volume of […] containing 50 mM HEPES (pH 7.0), 150 mM NaCl, 5mM CaCl2, 7 mM [14C]-oleate-labeled E. coli phospholipid and with or without the compound from one of the examples herein undergoing an assay. The compound or control vehicle was pre-incubated with the PLA2 for 5 minutes followed by addition of the E. coli substrate to initiate the reaction. The reaction was maintained at 37° C. for 30 minutes and then terminated by the addition of 2 ml tetrahydrofuran (THF). The reaction product, [14C] -oleic acid, was extracted using a 1 ml Bond Elut NH2 Solid phase extraction column. The IC50 value for the compound (mean +/- S.E.) is given in the following Table and represents the concentration of the compound required to inhibit 50% of the PLA2 activity.

Test [2] deals with LTB4 biosynthesis in HL-60 cells. Description: Assay for LTB4 production by HL-60 cells (LTB4 biosynthesis inhibition). Type of test: cell-based. The note with it: Homo sapiens; differentiated HL-60 cells, 10 min pre-incubation at 37° C., 5×10^-6 M A23187 for 5 minutes, radioimmunoassay; read-out: LTB4 Biosynthesis inhibition (HL60 cells) IC50. Here is the method:
HL-60 cells were induced to differentiate into granulocytes by a 4 day incubation with 0.8% (v/v) N,N-dimethyl formamide as disclosed in Fontana et al., Proc. Natl. Acad. Sci. 78 (6):3863-3866 (1981); Agins et al., Biochem. Biophys. Res. Comm. 126, 143-149 (1985); and Bonser et al., Biochemistry 20: 5297-5301 (1981). Prior to performing the assay, differentiated HL-60 cells were washed once with Hanks. balanced salt solution containing 0.35 mg/ml sodium bicarbonate and 10 mM HEPES pH 7.35 (HBSS). HL-60 cells (3×10^6 cells/ml) were pre-incubated with the compound tested or a control vehicle at 37° C. for 10 minutes, followed by 5 minute incubation with 5×10^-6 M calcium ionophore A23187 in a final volume of 1.0 ml. After incubation, the cells were pelleted by centrifugation and the LTB4 and PGE2 in the supernatant were quantified by radioimmunoassay. IC50 values (means +/- S.E.) for compounds herein that were tested are shown in the following Table and represent the concentrations of the compound required to inhibit 50% of LTB4 or PGE2 production by HL-60 cells stimulated with the calcium ionophore A23187.

For the molecule `CCCCCC#CCCCCCCC#CC(O)c1cccc(C(=O)O)c1` (stereo not drawn) [Example 18], the IC50 in test [1] was determined as 28 µM.

Take `CCCCCCCCCCCCCC#CC(=O)c1cccc(-c2nn[nH]n2)c1` [Example 30]: the IC50 amounted to 0.9 µM in test [2] and 11 µM in test [1].

`CCCCCCCCCCCCCC#CC(=O)c1cccc(C(=O)O)c1` [Example 4]: the IC50 in test [2] is 0.8 µM; in test [1], 11 µM.

On to `CCCCCCCCCCCCCC#CC(=O)c1cccc(C(=O)O)n1` [Example 13], for which the IC50 was found to be 0.8 µM in test [2] and 2.5 µM in test [1].

In the case of `CCCCCCCCCCCCC#CC(=O)c1ccc(C(=O)O)cc1` [Example 3], the figures for the IC50 in test [2] and in test [1] were 0.2 µM and 14 µM, respectively.

For the molecule `CCCCCCCCCCCCCC#CC(O)c1ccc(C(=O)O)o1` (stereo not drawn) [Example 11], the IC50 in test [2] came out at 2.4 µM; in test [1] it was 28 µM.

The molecule `CCCCCCCCCCCCCC#CC(=O)c1ccccc1C(=O)O` [Example 6] had an IC50 in test [1] of 13 µM.

Consider `CCCCCCCCCCCCCC#CC(O)c1ccc(O)c(C(=O)O)c1` (stereo not drawn) [Example 16], for which the IC50 in test [2] came to 8 µM; in test [1], 11 µM.

As for `CCCCCCCCCCCCCC#CC(O)c1cccc(-c2nn[nH]n2)c1` (stereo not drawn) [Example 29], the IC50 in test [1] is 42 µM.

In the case of `CCCCCCCCCCCCCC#CC(=O)c1ccc(O)c(C(=O)O)c1` [Example 17], the results for the IC50 in test [2] and in test [1] were 0.4 µM and 33 µM, respectively.

`CCCCCCCCCCCCCC#CC(=O)c1ccc(C(=O)O)o1` [Example 12]: the IC50 was 0.5 µM in test [2] and 34 µM in test [1].

Regarding `CCCCCCCCCCCCCC#CC(=O)c1ccc(C(=O)O)s1` [Example 25], the IC50 in test [2] came out at 0.4 µM; in test [1] it was 15 µM.

On to `CCCCCCCCCCCCCC#CC(=O)c1cccc(C(=O)NS(=O)(=O)c2ccccc2)c1` [Example 27], for which the IC50 in test [1] amounted to 14 µM.

Take `CCCCCCCCCCCCCC#CC(O)c1ccc(C(=O)O)s1` (stereo not drawn) [Example 24]: the IC50 in test [2] was found to be 0.9 µM; in test [1] it was 18 µM.
